Source: ChEMBL document CHEMBL4418306, “Quinolinone lysyl oxidase-like 2 inhibitors and uses thereof” (2017)
Active and inactive are the calls of the source. The rule behind the calls is not given here.

System: Mus musculus
Experiment: Antifibrotic activity in C57BL/6 mouse model of bleomycin-induced lung fibrosis assessed as reduction in collagen level in lung at 60 mg/kg, po pre-treated 1 hr to 1 day before bleomycin injection and measured after 14 to 28 days by hydroxyproline assay
Assay type: functional, organism-based

For NCc1cc(=O)c2cc(Br)ccc2[nH]1, the Activity was “Active”.
